Source: US20230295182A1, “SPIRO DERIVATIVES OF ALPHA-D-GALACTOPYRANOSIDES” (Idorsia Pharmaceuticals Ltd, priority 2020, published 2023)

Tests used:
human Gal-3 (hGal-3) = human Gal-3 (hGal-3) (Homo sapiens (Human), UniProt P17931); assay: Competitive binding assay: biotinylated hGal-3 to microplate-adsorbed asialofetuin (ASF); settings: Activity on hGal-3; binding to ASF-coated plates, 3 hours at 4° C.; mean values
How it was run: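 Biotinylated hGal-3 (300-1000 ng/mL) binding to plate-adsorbed asialofetuin, with DMSO-diluted compound added, incubated 3 h at 4 °C. After washing, bound protein detected with streptavidin-peroxidase (80 ng/mL, 1 h, 4 °C) and ABTS substrate, read spectrophotometrically. IC50 given as mean of several measurements.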

human Gal-1 (hGal-1) = human Gal-1 (hGal-1) (Homo sapiens, UniProt P09382); assay: Competitive binding assay: biotinylated hGal-1 to microplate-adsorbed asialofetuin (ASF); settings: Activities on hGal-1; binding to ASF-coated plates, 3 hours at 4° C.; mean values; read-out: Gal-1 IC50
How it was run: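 Plate-adsorbed asialofetuin is incubated 3 h at 4 °C with biotinylated hGal-1, optionally its all-serine-substituted cysteine variant, plus compound dilutions. ABTS color after 1 h streptavidin-peroxidase (80 ng/mL) at 4 °C reports binding. Reported IC50 is a mean across repeat runs.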

Chain of human Gal-1 (hGal-1) (P09382 2-135 limits assumed): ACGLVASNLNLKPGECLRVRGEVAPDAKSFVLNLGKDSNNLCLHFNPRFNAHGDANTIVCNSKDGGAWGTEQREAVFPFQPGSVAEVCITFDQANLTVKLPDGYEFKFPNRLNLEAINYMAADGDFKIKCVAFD
Chain of human Gal-3 (hGal-3) (P17931 whole entry): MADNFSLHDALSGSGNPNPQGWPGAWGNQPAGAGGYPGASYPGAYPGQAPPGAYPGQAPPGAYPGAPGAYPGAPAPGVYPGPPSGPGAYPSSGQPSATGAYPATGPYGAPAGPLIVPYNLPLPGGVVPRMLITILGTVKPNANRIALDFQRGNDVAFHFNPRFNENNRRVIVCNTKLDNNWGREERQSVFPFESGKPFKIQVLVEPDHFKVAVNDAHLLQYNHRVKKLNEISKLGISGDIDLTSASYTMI

IC50 (human Gal-3 (hGal-3)) [nM]	IC50 (human Gal-1 (hGal-1)) [nM]	SMILES
19	340	CCOC(=O)N[C@H]1CC[C@]2(CC1)CC(C[C@H]1O[C@H](CO)[C@H](O)[C@H](n3cc(-c4ccc(Cl)c(F)c4F)nn3)[C@H]1OC)=NO2 [Example 2.11, ethyl ((5r,8R)-3-(((2R,3R,4S,5R,6R)-4-(4-(4-chloro-2,3-difluorophenyl)-1H-1,2,3-triazol-1-yl)-5-hydroxy-6-(hydroxymethyl)-3-methoxytetrahydro-2H-pyran-2-yl)methyl)-1-oxa-2-azaspiro[4.5]dec-2-en-8-yl)carbamate]
300	3100	CCO[C@@H]1[C@@H](n2cc(-c3cc(F)c(F)c(F)c3)nn2)[C@@H](O)[C@@H](CO)O[C@@H]1CC1=NOC2(CCCCC2)C1 [Example 1.69, (2R,3R,4S,5R,6R)-6-((1-oxa-2-azaspiro[4.5]dec-2-en-3-yl)methyl)-5-ethoxy-2-(hydroxymethyl)-4-(4-(3,4,5-trifluorophenyl)-1H-1,2,3-triazol-1-yl)tetrahydro-2H-pyran-3-ol]
49	460	CO[C@@H]1[C@@H](n2cc(-c3ccc(Cl)c(F)c3F)nn2)[C@@H](O)[C@@H](CO)O[C@@H]1CC1=NO[C@]2(CC[C@H](C#N)CC2)C1 [Example 1.61, (5r,8R)-3-(((2R,3R,4S,5R,6R)-4-(4-(4-chloro-2,3-difluorophenyl)-1H-1,2,3-triazol-1-yl)-5-hydroxy-6-(hydroxymethyl)-3-methoxytetrahydro-2H-pyran-2-yl)methyl)-1-oxa-2-azaspiro[4.5]dec-2-ene-8-carbonitrile]
52	310	CO[C@@H]1[C@@H](n2cc(-c3ccc(F)c(F)c3F)nn2)[C@@H](O)[C@@H](CO)O[C@@H]1CC1=NO[C@]2(CC[C@H](NC(C)=O)CC2)C1 [Example 2.08, N-((5r,8R)-3-(((2R,3R,4S,5R,6R)-5-hydroxy-6-(hydroxymethyl)-3-methoxy-4-(4-(2,3,4-trifluorophenyl)-1H-1,2,3-triazol-1-yl)tetrahydro-2H-pyran-2-yl)methyl)-1-oxa-2-azaspiro[4.5]dec-2-en-8-yl)acetamide]
130	220	CO[C@@H]1[C@@H](n2cc(-c3ccc(F)c(F)c3F)nn2)[C@@H](O)[C@@H](CO)O[C@@H]1CC1=NO[C@]2(CC[C@H](C#N)CC2)C1 [Example 1.59, (5r,8R)-3-(((2R,3R,4S,5R,6R)-5-hydroxy-6-(hydroxymethyl)-3-methoxy-4-(4-(2,3,4-trifluorophenyl)-1H-1,2,3-triazol-1-yl)tetrahydro-2H-pyran-2-yl)methyl)-1-oxa-2-azaspiro[4.5]dec-2-ene-8-carbonitrile]
950	2700	CO[C@@H]1[C@@H](n2cc(-c3cc(F)c(F)c(F)c3)nn2)[C@@H](O)[C@@H](CO)O[C@@H]1CC1=NOC2(CCCC2)C1 [Example 1.09, (2R,3R,4S,5R,6R)-6-((1-oxa-2-azaspiro[4.4]non-2-en-3-yl)methyl)-2-(hydroxymethyl)-5-methoxy-4-(4-(3,4,5-trifluorophenyl)-1H-1,2,3-triazol-1-yl)tetrahydro-2H-pyran-3-ol]
160	6000	CO[C@@H]1[C@@H](n2cc(-c3ccc(Br)c(F)c3F)nn2)[C@@H](O)[C@@H](CO)O[C@@H]1CC1=NOC2(CCCCC2)C1 [Example 1.17, (2R,3R,4S,5R,6R)-6-((1-oxa-2-azaspiro[4.5]dec-2-en-3-yl)methyl)-4-(4-(4-bromo-2,3-difluorophenyl)-1H-1,2,3-triazol-1-yl)-2-(hydroxymethyl)-5-methoxytetrahydro-2H-pyran-3-ol]
310	1100	CO[C@@H]1[C@@H](n2cc(-c3ccc(Cl)c(F)c3)nn2)[C@@H](O)[C@@H](CO)O[C@@H]1CC1=NOC2(CCCCC2)C1 [Example 1.12, (2R,3R,4S,5R,6R)-6-((1-oxa-2-azaspiro[4.5]dec-2-en-3-yl)methyl)-4-(4-(4-chloro-3-fluorophenyl)-1H-1,2,3-triazol-1-yl)-2-(hydroxymethyl)-5-methoxytetrahydro-2H-pyran-3-ol]
110	640	CO[C@@H]1[C@@H](n2cc(-c3ccc(F)c(F)c3F)nn2)[C@@H](O)[C@@H](CO)O[C@@H]1CC1=NO[C@]2(CC[C@@H](C#N)CC2)C1 [Example 1.58, (5s,8S)-3-(((2R,3R,4S,5R,6R)-5-hydroxy-6-(hydroxymethyl)-3-methoxy-4-(4-(2,3,4-trifluorophenyl)-1H-1,2,3-triazol-1-yl)tetrahydro-2H-pyran-2-yl)methyl)-1-oxa-2-azaspiro[4.5]dec-2-ene-8-carbonitrile]
340	3400	CO[C@@H]1[C@@H](n2cc(-c3cc(F)c(F)c(F)c3)nn2)[C@@H](O)[C@@H](CO)O[C@@H]1CC1=NOC2(CCC(C)(C)C2)C1 (stereo partly drawn) [Example 1.32, (2R,3R,4S,5R,6R)-6-((7,7-dimethyl-1-oxa-2-azaspiro[4.4]non-2-en-3yl)methyl)-2-(hydroxymethyl)-5-methoxy-4-(4-(3,4,5-trifluorophenyl)-1H-1,2,3-triazol-1-yl)tetrahydro-2H-pyran-3-ol]
12	300	CO[C@@H]1[C@@H](n2cc(-c3ccc(F)c(F)c3F)nn2)[C@@H](O)[C@@H](CO)O[C@@H]1CC1=NO[C@]2(CC[C@H](NC(=O)OC(C)(C)C)CC2)C1 [Example 1.41, tert-butyl ((5r,8R)-3-(((2R,3R,4S,5R,6R)-5-hydroxy-6-(hydroxymethyl)-3-methoxy-4-(4-(2,3,4-trifluorophenyl)-1H-1,2,3-triazol-1-yl)tetrahydro-2H-pyran-2-yl)methyl)-1-oxa-2-azaspiro[4.5]dec-2-en-8-yl)carbamate]
110	1400	CO[C@@H]1[C@@H](n2cc(-c3ccc(F)c(F)c3F)nn2)[C@@H](O)[C@@H](CO)O[C@@H]1CC1=NOC2(CCOCC2)C1 [Example 1.35, (2R,3R,4S,5R,6R)-6-((1,8-dioxa-2-azaspiro[4.5]dec-2-en-3-yl)methyl)-2-(hydroxymethyl)-5-methoxy-4-(4-(2,3,4-trifluorophenyl)-1H-1,2,3-triazol-1-yl)tetrahydro-2H-pyran-3-ol]
132	850	CO[C@@H]1[C@@H](n2cc(-c3ccc(F)c(F)c3F)nn2)[C@@H](O)[C@@H](CO)O[C@@H]1CC1=NO[C@]2(CC[C@@H](NC(=O)OC(C)(C)C)CC2)C1 [Example 1.42, tert-butyl ((5s,8S)-3-(((2R,3R,4S,5R,6R)-5-hydroxy-6-(hydroxymethyl)-3-methoxy-4-(4-(2,3,4-trifluorophenyl)-1H-1,2,3-triazol-1-yl)tetrahydro-2H-pyran-2-yl)methyl)-1-oxa-2-azaspiro[4.5]dec-2-en-8-yl)carbamate]
120	2700	CO[C@@H]1[C@@H](n2cc(-c3cc(F)c(F)c(F)c3)nn2)[C@@H](O)[C@@H](CO)O[C@@H]1CN1CC2(CCN(C(=O)OC(C)(C)C)CC2)OC1=O [Example 3.01, tert-butyl 3-(((2R,3R,4S,5R,6R)-5-hydroxy-6-(hydroxymethyl)-3-methoxy-4-(4-(3,4,5-trifluorophenyl)-1H-1,2,3-triazol-1-yl)tetrahydro-2H-pyran-2-yl)methyl)-2-oxo-1-oxa-3,8-diazaspiro[4.5]decane-8-carboxylate]
